These compounds were tested against Diacylglycerol kinase alpha (Homo sapiens, UniProt P23743) (assay: Inhibition of recombinant human DGKalpha using DLG as substrate preincubated with compound followed by substrate addition and measured after 90 mins in presence of ATP by ADP-Glo reagent based analysis).
Sequence of Diacylglycerol kinase alpha (P23743 whole entry): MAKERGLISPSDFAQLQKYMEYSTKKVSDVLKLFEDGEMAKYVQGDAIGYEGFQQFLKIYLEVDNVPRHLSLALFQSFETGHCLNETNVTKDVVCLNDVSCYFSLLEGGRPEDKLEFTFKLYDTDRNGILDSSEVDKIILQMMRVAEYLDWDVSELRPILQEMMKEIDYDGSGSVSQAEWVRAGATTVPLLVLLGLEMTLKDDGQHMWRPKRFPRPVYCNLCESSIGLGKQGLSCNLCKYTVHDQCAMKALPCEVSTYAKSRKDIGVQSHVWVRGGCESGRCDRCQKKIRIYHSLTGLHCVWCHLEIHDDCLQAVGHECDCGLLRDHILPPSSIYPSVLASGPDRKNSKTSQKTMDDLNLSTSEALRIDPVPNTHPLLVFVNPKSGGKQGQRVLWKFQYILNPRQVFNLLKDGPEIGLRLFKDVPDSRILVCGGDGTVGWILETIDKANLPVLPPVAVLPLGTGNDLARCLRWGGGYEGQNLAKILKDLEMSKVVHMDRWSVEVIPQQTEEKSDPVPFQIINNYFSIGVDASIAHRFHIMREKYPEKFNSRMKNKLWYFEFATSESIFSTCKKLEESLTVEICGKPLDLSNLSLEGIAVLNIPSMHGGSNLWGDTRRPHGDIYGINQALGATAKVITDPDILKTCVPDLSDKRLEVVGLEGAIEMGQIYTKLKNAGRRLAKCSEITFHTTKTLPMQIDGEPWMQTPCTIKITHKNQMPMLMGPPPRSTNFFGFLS

| SMILES | IC50 [nM] |
| --- | --- |
| C[C@@H]1CN(c2nc(=O)n(C)c3c2cnn3C)[C@@H](C)CN1C(c1ccc(F)cc1)c1ccc(F)cc1 | ≤ 10 |
| CC[C@@H]1CN(c2nc(=O)n(C)c3c2nc(C)n3C[C@@H]2CCCO2)[C@@H](C)CN1C(c1ccc(C(F)(F)F)cc1)C1CC(F)(F)C1 (stereo partly specified) | ≤ 10 |
| Cc1nc2c(N3C[C@@H](C)N(C(c4ccc(F)cc4)c4ccc(F)cc4)C[C@@H]3C)nc(=O)[nH]c2n1C[C@@H]1CCCO1 | ≤ 10 |
| C[C@@H]1CN(c2nc(=O)n(C)c3c2ncn3CC2(O)CCC2)[C@@H](C)CN1C(c1ccc(Cl)cc1)C1CC(F)(F)C1 (stereo partly specified) | ≤ 10 |
| C[C@@H]1CN(c2nc(=O)n(C)c3c2nnn3C[C@H]2CCCO2)[C@@H](C)CN1C(c1ccc(C(F)(F)F)cn1)c1ccc(C(F)(F)F)cn1 | ≤ 10 |
| C[C@@H]1CN(c2nc(=O)n(C)c3c2nnn3C[C@H]2CCCO2)[C@@H](C)CN1C(c1ccc(F)cc1)c1ccc(F)cc1 | ≤ 10 |

Source: ChEMBL document CHEMBL6134928, “Novel Bicyclic DGK Inhibitors for Treating Metastatic Melanoma” (ACS Med Chem Lett, 2025)
